Data as given in ChEMBL document CHEMBL1139018, “Acetylenic TACE inhibitors. Part 3: Thiomorpholine sulfonamide hydroxamates” (Bioorg Med Chem Lett, 2006).

Key:
[1] = target: T1, Disintegrin and metalloproteinase domain-containing protein 17 (Homo sapiens, UniProt P78536); assay: Inhibition of TACE
[2] = target: T1, Disintegrin and metalloproteinase domain-containing protein 17; assay: Inhibition of LPS-stimulated TNF production in THP cells at 1 uM; assay type: functional, cell-based
Interstitial collagenase = target: T2, Interstitial collagenase (Homo sapiens, UniProt P03956); assay: Inhibition of MMP1
T2 sequence (P03956 whole entry): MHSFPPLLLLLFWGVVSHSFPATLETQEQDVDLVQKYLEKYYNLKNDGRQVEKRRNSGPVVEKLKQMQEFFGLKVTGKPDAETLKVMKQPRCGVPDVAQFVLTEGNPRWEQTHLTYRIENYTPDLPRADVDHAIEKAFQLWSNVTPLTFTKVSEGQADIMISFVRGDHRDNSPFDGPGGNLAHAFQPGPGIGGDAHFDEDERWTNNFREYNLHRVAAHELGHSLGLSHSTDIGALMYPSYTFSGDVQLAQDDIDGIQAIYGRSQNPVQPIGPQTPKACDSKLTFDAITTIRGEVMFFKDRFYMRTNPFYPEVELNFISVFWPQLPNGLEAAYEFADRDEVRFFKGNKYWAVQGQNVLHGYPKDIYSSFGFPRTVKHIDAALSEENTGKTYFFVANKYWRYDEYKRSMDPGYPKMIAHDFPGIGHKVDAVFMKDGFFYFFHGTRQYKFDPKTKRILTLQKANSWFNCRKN

[3] = target: T1, Disintegrin and metalloproteinase domain-containing protein 17; assay: Inhibition of LPS-stimulated TNF production in THP cells at 3 uM; assay type: functional, cell-based
Collagenase 3 = Collagenase 3 (Homo sapiens, UniProt P45452); assay: Inhibition of MMP13
Mus musculus [4] = assay: Inhibition of LPS-stimulated TNFalpha production in mouse at 50 mg/kg, po; assay type: functional
Mus musculus [5] = organism: Mus musculus; assay: Inhibition of LPS-stimulated TNFalpha production in mouse; assay type: functional
[6] = Bioavailability in rat at 10 mg/kg; assay type: ADME, organism-based; conditions: in vivo
[7] = Permeability across Caco-2 cell membrane; assay type: ADME, cell-based; conditions: human
[8] = Bioavailability in dog at 10 mg/kg; assay type: ADME, organism-based, Canis lupus familiaris; conditions: in vivo
[9] = Bioavailability in mouse at 10 mg/kg; assay type: ADME, organism-based; conditions: in vivo

T1 sequence (P78536 whole entry, the tested form may be a part): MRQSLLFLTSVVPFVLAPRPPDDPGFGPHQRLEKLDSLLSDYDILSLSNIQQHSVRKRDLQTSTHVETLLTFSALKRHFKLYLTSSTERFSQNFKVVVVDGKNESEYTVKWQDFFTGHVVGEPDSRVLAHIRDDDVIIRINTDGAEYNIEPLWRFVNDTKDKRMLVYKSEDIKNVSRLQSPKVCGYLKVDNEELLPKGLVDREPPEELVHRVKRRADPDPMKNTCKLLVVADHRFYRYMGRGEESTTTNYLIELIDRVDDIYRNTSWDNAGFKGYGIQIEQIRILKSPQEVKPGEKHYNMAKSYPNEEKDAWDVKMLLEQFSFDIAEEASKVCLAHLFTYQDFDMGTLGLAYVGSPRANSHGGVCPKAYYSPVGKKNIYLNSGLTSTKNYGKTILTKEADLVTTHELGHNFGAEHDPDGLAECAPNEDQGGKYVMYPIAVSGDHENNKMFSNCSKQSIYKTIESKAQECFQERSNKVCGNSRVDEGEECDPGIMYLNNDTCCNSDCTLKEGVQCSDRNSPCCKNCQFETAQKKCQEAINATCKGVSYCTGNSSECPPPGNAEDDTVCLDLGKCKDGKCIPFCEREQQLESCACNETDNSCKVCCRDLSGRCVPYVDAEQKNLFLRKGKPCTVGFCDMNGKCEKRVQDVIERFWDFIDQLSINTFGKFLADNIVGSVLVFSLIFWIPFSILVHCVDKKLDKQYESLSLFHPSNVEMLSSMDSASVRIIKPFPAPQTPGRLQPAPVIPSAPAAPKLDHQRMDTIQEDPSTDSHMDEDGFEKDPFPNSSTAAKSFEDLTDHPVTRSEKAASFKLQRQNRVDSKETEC

Row | SMILES | IC50 [1] | inhibition [2] | IC50 (Interstitial collagenase) | inhibition [3] | IC50 (Collagenase 3) | inhibition in vivo at 50 mg/kg (Mus musculus [4]) | ED50 (Mus musculus [5]) | bioavailability [6] | IC50 [2] | Papp [7] | bioavailability [8] | bioavailability [9]
1 | CC(C)(C)OC(=O)NCCC#CCOc1ccc(S(=O)(=O)N2CCSC(C)(C)[C@@H]2C(=O)NO)cc1 | 0.112 µM | 14% | 0.3 µM | 37% | 0.007 µM |  |  |  |  |  |  | 
2 | CC1(C)SCCN(S(=O)(=O)c2ccc(OCC#CCCO)cc2)[C@H]1C(=O)NO | 0.062 µM | 25% | 0.035 µM | 57% | 0.014 µM |  |  |  |  |  |  | 
3 | CC1(C)SCCN(S(=O)(=O)c2ccc(OCC#CCCCCO)cc2)[C@H]1C(=O)NO |  | 52% |  | 77% |  |  |  |  |  |  |  | 
4 | CC1(C)SCCN(S(=O)(=O)c2ccc(OCC#CCCCN)cc2)[C@H]1C(=O)NO |  | 0% |  | 22% | 0.009 µM |  |  |  |  |  |  | 
5 | C#CC#CCOc1ccc(S(=O)(=O)N2CCSC(C)(C)[C@@H]2C(=O)NO)cc1 |  | 62% | 0.006 µM | 88% |  |  |  |  |  |  |  | 
6 | CC#CCOc1ccc(S(=O)(=O)N2C[C@H](CNS(C)(=O)=O)SC(C)(C)[C@@H]2C(=O)NO)cc1 | 0.011 µM | 81% | 0.019 µM | 91% | 0.014 µM |  |  |  |  |  |  | 
7 | CCCCC#CCOc1ccc(S(=O)(=O)N2CCSC(C)(C)[C@@H]2C(=O)NO)cc1 | 0.023 µM | 48% | 0.029 µM | 82% | 0.007 µM |  |  |  |  |  |  | 
8 | CC(C)(C)OC(=O)NCCCC#CCOc1ccc(S(=O)(=O)N2CCSC(C)(C)[C@@H]2C(=O)NO)cc1 |  | 5% |  | 27% | 0.002 µM |  |  |  |  |  |  | 
9 | CC#CCOc1ccc(S(=O)(=O)N2C[C@H](CCO)SC(C)(C)[C@@H]2C(=O)NO)cc1 | 0.015 µM | 74% | 0.021 µM | 90% | 0.023 µM | ≥ 95% |  |  |  |  |  | 
10 | CC(C)(C)OC(=O)NCCCCC#CCOc1ccc(S(=O)(=O)N2CCSC(C)(C)[C@@H]2C(=O)NO)cc1 |  | 40% |  | 70% | 0.004 µM |  |  |  |  |  |  | 
11 | CC1(C)SCCN(S(=O)(=O)c2ccc(OCC#CCCCO)cc2)[C@H]1C(=O)NO | 0.04 µM | 19% | 0.159 µM | 51% | 0.086 µM |  |  |  |  |  |  | 
12 | CC1(C)SCCN(S(=O)(=O)c2ccc(OCC#CCCCCN)cc2)[C@H]1C(=O)NO |  | 13% |  | 37% | 0.007 µM |  |  |  |  |  |  | 
13 | C/C=C/COc1ccc(S(=O)(=O)N2CCSC(C)(C)[C@@H]2C(=O)NO)cc1 | 0.035 µM | 50% | 0.007 µM | 80% | 0.002 µM |  |  |  |  |  |  | 
14 | CC1(C)SCCN(S(=O)(=O)c2ccc(OCC#CCCN)cc2)[C@H]1C(=O)NO | 0.138 µM | 0% | 1.05 µM | 4% | 0.027 µM |  |  |  |  |  |  | 
15 | CC#CCOc1ccc(S(=O)(=O)N2C[C@H](CC(=O)O)SC(C)(C)[C@@H]2C(=O)NO)cc1 |  | 73% |  | 89% | 0.007 µM |  |  |  |  |  |  | 
16 | CC(C)(C)OC(=O)NCC#CCOc1ccc(S(=O)(=O)N2CCSC(C)(C)[C@@H]2C(=O)NO)cc1 | 0.074 µM | 53% | 0.026 µM | 79% | 0.004 µM |  |  |  |  |  |  | 
17 | CC#CCOc1ccc(S(=O)(=O)N2C[C@H](CCN(CC)CC)SC(C)(C)[C@@H]2C(=O)NO)cc1 | 0.143 µM | 67% | 0.033 µM | 87% | 0.048 µM | ≥ 95% |  |  |  |  |  | 
18 | CC1(C)SCCN(S(=O)(=O)c2ccc(OCC#CCO)cc2)[C@H]1C(=O)NO |  | 89% |  | 95% | 0.008 µM | ≥ 95% | 5 mg/kg | 8% | 0.14 µM | 2.2 ×10⁻⁶ cm/s | 36% | 24%
19 | CC#CCOc1ccc(S(=O)(=O)N2CCSC(C)(C)[C@@H]2C(=O)NO)cc1 |  | 87% |  | 94% |  |  |  | 5% |  |  | 0% | 71%
20 | C#CCCCOc1ccc(S(=O)(=O)N2CCSC(C)(C)[C@@H]2C(=O)NO)cc1 | 0.04 µM | 16% | 0.011 µM | 38% | 0.008 µM |  |  |  |  |  |  | 
21 | C#CCOc1ccc(S(=O)(=O)N2CCSC(C)(C)[C@@H]2C(=O)NO)cc1 |  | 76% | 0.001 µM | 91% | 0.001 µM |  |  |  |  |  |  | 
22 | C#CCCOc1ccc(S(=O)(=O)N2CCSC(C)(C)[C@@H]2C(=O)NO)cc1 | 0.032 µM | 36% | 0.002 µM | 64% | 0.001 µM |  |  |  |  |  |  | 
23 | CC#CCOc1ccc(S(=O)(=O)N2C[C@H](CN)SC(C)(C)[C@@H]2C(=O)NO)cc1 |  | 78% |  | 94% |  | ≥ 95% |  |  |  |  |  | 
24 | CC1(C)SCCN(S(=O)(=O)c2ccc(OCC#CCN)cc2)[C@H]1C(=O)NO |  | 10% | 0.097 µM | 40% | 0.008 µM |  |  |  |  |  |  | 
25 | CCCCOc1ccc(S(=O)(=O)N2CCSC(C)(C)[C@@H]2C(=O)NO)cc1 | 0.042 µM | 11% | 0.007 µM | 38% | 0.009 µM |  |  |  |  |  |  | 
26 | CC#CCOc1ccc(S(=O)(=O)N2C[C@H](CC(N)=O)SC(C)(C)[C@@H]2C(=O)NO)cc1 |  | 76% |  | 91% |  |  |  |  |  |  |  | 
